Experimental data reported in patent publication US20030139427A1, “Bicyclic pyrimidinyl derivatives and methods of use thereof” (OSI Pharmaceuticals Inc., priority 2002, published 2003).
Read-outs that look alike come from different tables or passages of the source.

Key:
[1] = biological target: T1, human A2a receptor subtype (Homo sapiens, UniProt P29274); assay: Adenosine 2a receptor subtype competition radioligand binding, [3H]CGS-21680, HEK293 membranes
T1 construct: purchased Receptor Biology (Beltsville, Md.) RB-HA2a; host or cells: HEK-293, stably expressing

[2] = biological target: T2, human A2b receptor subtype (Homo sapiens, UniProt P29275); assay: Adenosine 2b receptor subtype competition radioligand binding, [3H]DPCPX, HEK293 membranes
T2 construct: purchased Receptor Biology (Beltsville, Md.) RB-HA2b; host or cells: HEK-293, stably expressing
T2 sequence (P29275 1-332): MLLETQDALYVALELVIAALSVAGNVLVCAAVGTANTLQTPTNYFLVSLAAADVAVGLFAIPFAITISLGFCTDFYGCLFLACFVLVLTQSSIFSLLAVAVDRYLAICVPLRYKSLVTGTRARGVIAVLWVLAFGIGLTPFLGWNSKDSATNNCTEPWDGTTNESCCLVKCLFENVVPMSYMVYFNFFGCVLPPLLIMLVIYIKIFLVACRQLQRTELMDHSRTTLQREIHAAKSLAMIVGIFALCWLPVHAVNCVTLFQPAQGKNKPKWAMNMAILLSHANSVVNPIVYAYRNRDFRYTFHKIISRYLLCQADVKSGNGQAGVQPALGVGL

[3] = biological target: T3, human A3 receptor subtype (Homo sapiens, UniProt P0DMS8); assay: Adenosine 3 receptor competition radioligand binding, [125I]AB-MECA, HEK293 membranes
T3 construct: purchased Receptor Biology (Beltsville, Md.) RB-HA3; host or cells: HEK-293, stably expressing
T3 sequence (P0DMS8 1-318): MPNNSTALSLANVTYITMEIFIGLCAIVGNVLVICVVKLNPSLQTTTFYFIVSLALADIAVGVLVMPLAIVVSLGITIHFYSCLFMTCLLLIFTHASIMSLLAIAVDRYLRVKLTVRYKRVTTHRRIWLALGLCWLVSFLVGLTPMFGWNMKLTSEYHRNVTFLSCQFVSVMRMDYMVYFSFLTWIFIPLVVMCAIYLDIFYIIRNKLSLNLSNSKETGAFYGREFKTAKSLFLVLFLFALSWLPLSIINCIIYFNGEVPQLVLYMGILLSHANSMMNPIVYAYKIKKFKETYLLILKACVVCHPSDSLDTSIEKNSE

PDE4 (Human) = assay: PDE4 inhibition; assay type: biochemical
[4] = biological target: T4, human A1 receptor subtype (Homo sapiens, UniProt P30542); assay: biochemical
T4 sequence (P30542 1-326): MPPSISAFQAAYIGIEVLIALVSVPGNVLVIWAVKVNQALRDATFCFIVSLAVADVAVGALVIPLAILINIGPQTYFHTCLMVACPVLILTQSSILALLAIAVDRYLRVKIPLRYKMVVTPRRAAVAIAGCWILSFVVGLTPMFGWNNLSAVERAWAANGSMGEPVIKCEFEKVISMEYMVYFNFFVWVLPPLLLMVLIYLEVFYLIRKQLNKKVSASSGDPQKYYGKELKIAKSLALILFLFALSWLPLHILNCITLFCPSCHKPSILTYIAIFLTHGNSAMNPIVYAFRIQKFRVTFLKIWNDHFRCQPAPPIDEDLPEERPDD

hA3R = biological target: T5, hA3R (Homo sapiens, UniProt P0DMS8); assay: Displacement binding of [3H]CPX, yeast membranes expressing human A3 receptor; details: read-out: IC50 [nM] hA3R, 0.4 nM [3H]CPX
T5 sequence (P0DMS8 1-318): T3 sequence (P0DMS8 1-318)

[5] = biological target: T4, human A1 receptor subtype; details: for Ki: read-out: A1 Binding Ki, Tables 7-13, deazapurine analogues

T1 sequence (P29274 whole entry): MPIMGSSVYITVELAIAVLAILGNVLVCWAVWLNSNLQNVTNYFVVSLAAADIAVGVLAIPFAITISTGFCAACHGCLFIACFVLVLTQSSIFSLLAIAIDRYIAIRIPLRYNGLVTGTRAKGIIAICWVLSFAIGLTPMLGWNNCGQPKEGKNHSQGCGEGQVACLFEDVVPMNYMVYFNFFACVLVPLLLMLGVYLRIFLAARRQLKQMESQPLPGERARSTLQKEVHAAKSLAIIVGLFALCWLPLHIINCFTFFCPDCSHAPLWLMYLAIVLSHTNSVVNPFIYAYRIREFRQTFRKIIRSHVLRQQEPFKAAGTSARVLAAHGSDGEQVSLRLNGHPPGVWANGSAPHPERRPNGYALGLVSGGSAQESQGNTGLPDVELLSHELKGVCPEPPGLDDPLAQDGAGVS

SMILES	Ki ([1]; Table 6, read-out: Ki − A2A) [µM]	Ki ([2]; Table 6, read-out: Ki − A2B) [nM]	Ki [4] [µM]	other results
O[C@H]1CC[C@H](Nc2nc(-c3ccccc3)nc3[nH]ncc23)CC1	0.432	1460	0.0044	Ki ([3]; Table 6, read-out: Ki − A3): 664 nM; PDE4 (Human) Inhibition at 10 μM (PDE4 (Human)): 89%
CNC(=O)NCCCNc1nc(-c2ccccc2)nc2[nH]c(C)c(C)c12 [Compound 1310]				A2a, value printed as % in Ki column ([1]; Table 14): 76%
O[C@H]1CC[C@H](Nc2nc(-c3ccccc3)nc3[nH]nnc23)CC1	1.53	4210	0.0524	
O=c1nc2[nH]c3ccccc3nc-2c(=O)[nH]1 [Alloxazine]				IC50 (hA3R): 8220 nM
NC(=O)[C@@H]1CCCN1c1nc(-c2ccccc2)nc2[nH]cnc12	0.0191	63.1	0.0009	
NC(=O)[C@@H]1CCCN1c1nc(-c2ccccc2)nc2[nH]ncc12	0.0668	97.4	0.0006	Ki ([3]; Table 6, read-out: Ki − A3): 261 nM; PDE4 (Human) Inhibition at 10 μM (PDE4 (Human)): 34%
O[C@H]1CC[C@H](Nc2nc(-c3ccccc3)nc3[nH]cnc23)CC1	0.0968	69.3	0.0015	Ki ([3]; Table 6, read-out: Ki − A3): 174 nM; PDE4 (Human) Inhibition at 10 μM (PDE4 (Human)): 79%
O[C@H]1CC[C@H](Nc2nc(-c3ccncc3)nc3[nH]ccc23)CC1 [Compound 1321]				A3, % activity @ 10 μM ([3]; Table 14, 10 μM): 54%^8
O[C@H]1CC[C@H](Nc2nc(-c3ccccc3)nc3[nH]c(CN4CCOCC4)cc23)CC1 [Compound 1503]				Ki-A1 (Adenosine A1 Receptor Selective Compounds) ([5]; selectivity versus other three subtypes): * (at least 10 times more selective than other three subtypes.)
Cc1[nH]c2nc(-c3ccccc3)nc(N[C@H]3CC[C@H](O)CC3)c2c1C [Compound 1304]				Ki ([2]; Table 14, read-out: Binding Ki (nM) A2b): 138 nM; Ki ([3]; Table 14, read-out: Binding Ki (nM) A3): 21.5 nM
NC(=O)[C@H]1CCCN1c1nc(-c2ccccc2)nc2[nH]ncc12	0.243	1480	0.0767	
Cc1[nH]c2nc(-c3ccccc3)nc(NC3CCC(OC(=O)c4ccccc4)CC3)c2c1C (stereo not drawn) [Compound 611]				Ki [5]: 0.786 µM
Cc1[nH]c2nc(-c3ccccc3)nc(NC3CCC(OC(=O)c4ccccc4)CC3)c2c1C (stereo not drawn) [Compound 606]				Ki [5]: 0.298 µM
CC(=O)NCCNc1nc(-c2ccccc2)nc2[nH]c(C)c(C)c12 [Compound 1300]				Ki [1]: 0.018 to 0.0486 µM

The next lines start with results.

Ki ([1]; Table 6, read-out: Ki − A2A) [µM]	Ki ([2]; Table 6, read-out: Ki − A2B) [nM]	Ki [4] [µM]	SMILES	other results
0.0211	168	0.0123	NC(=O)[C@H]1CCCN1c1nc(-c2ccccc2)nc2[nH]cnc12	
0.0248	22	0.0074	CC(=O)NCCNc1nc(-c2ccccc2)nc2[nH]cnc12	
5.54	5560	0.0813	NC(=O)[C@@H]1CCCN1c1nc(-c2ccccc2)nc2[nH]nnc12	
0.0495	32.1	0.0114	CC(=O)NCCNc1nc(-c2ccccc2)nc2[nH]ncc12	
